# Assay results: patent US20180320128A1, “METHODS FOR MODULATING PRODUCTION PROFILES OF RECOMBINANT PROTEINS” (ARES TRADING S.A., priority 2015, published 2018)
# Key:
# [1] = tested on: mAb1 cells (CHO-S cells expressing IgG1 mAb1); assay: Fed-batch culture in Spin Tubes, constant osmolality (315 mOsm/kg), increasing raffinose concentration; type: cell-based, Chinese hamster
# Procedure: (§1) Assays were performed with two CHO cell lines: • CHO-S cells expressing IgG1 mAb1, herein “Cells mAb1” or “mAb1 cells”. “mAb1” is a fully human monoclonal antibody directed against a soluble protein. Its isoelectric point (pI) is about 8.20-8.30. • CHO-K1 cells expressing IgG1 mAb2, herein “Cells mAb2” or “mAb2 cells”. “mAb2” is a humanized monoclonal antibody directed against a receptor found on the cell membrane. Its isoelectric point (pI) is about 9.30.
# Spintubes: Cells expressing both mAb1 and mAb2 were inoculated at 0.3×10^6 cells per mL.
# (§2) All assays were performed in fed-batch culture.
# (§3) A serum-free chemically defined culture medium was used. It was used as it is (o be adapted), or it was supplemented with D-(+)-Raffinose pentahydrate (Sigma-Aldrich, 83400-25G) at different concentrations (0-45 mM). The culture medium was fed, on a regular basis, with a chemically defined feed medium, as well as with glucose in order to keep said glucose level in the range of >0 to about 8 g/L.
# (§4) The cultures were performed: • In deepwell plates with a working volume of 450 μL. They were incubated at 36.5° C., 5% de CO2, 90% humidity and shaken at 320 rpm. Each of the fed-batch culture lasted 14 days. • In Spin Tubes (ST) with a working volume of 30 mL (with as permable lid). They were inoculated with a cell density of 0.3*10^6 cells/mL and maintained at 36.5° C., 320 rpm, 5% CO2 and 90% humidity for 14 days.
# Glycosylation profiles were established by capillary gel electrophoresis with laser-induced fluorescence (CGE-LIF). Groups of glycans were defined as thereafter in Table 2. […]
# A second experiment with constant osmolality (315 mOsm/kg) and increasing raffinose concentration was performed in Spin Tubes with a working volume of 30 mL and mAb1 cells. FIG. 10a depicts VCD and viability from mAb1 cells of the experimental approach with constant osmolality and increasing raffinose concentration in Spin Tubes. […] The lowest VCD was obtained at 100 mM raffinose (10.2±0.2*10^6 cells/mL), as illustrated in FIG. 10b.
# [2] = tested on: mAb2 cells (CHO-K1 cells expressing IgG1 mAb2); assay: Fed-batch culture in deep-well plates, 0 or 30 mM raffinose with increasing osmolality (experimental approach 2); type: cell-based, Chinese hamster
# Procedure: as §1
# (§5) Deepwell plates: Cells expressing mAb2 were inoculated at 0.2×10^6 cells per millilitre (mL), whereas cells expressing mAb1 were inoculated at 0.3×10^6 cells per mL.
# as §2, §3, §4
# (§6) Viable cell density and viability were measured with the Guava easyCyte® flow cytometer.
# (§7) Antibody titers were measured with the fortéBIO Octet®.
# (§8) Glycosylation profiles were established by capillary gel electrophoresis with laser-induced fluorescence (CGE-LIF). Groups of glycans were defined as thereafter in Table 2.
# (§9) Stock solutions were prepared with media to prevent dilution. The given concentrations equal the concentrations in media before incoculation. CHO-S cells (=mAb1 cells) expressing mAb1 were expanded for 49 days, CHO-K1 (=mAb2 cells) expressing mAb2 were expanded for 28 days.
# The second experimental approach was performed with increasing osmolality and constant sugar concentrations (see table 3 and methods in example 1).
# [3] = tested on: mAb2 cells (CHO-K1 cells expressing IgG1 mAb2); assay: Fed-batch culture in 96 deep-well plates, constant osmolality (315 mOsm/kg), increasing sugar concentration (experimental approach 1); type: cell-based, Chinese hamster; conditions: for increase of High Mannose (HM) species of mAb2 with respect to control: absolute change; for increase of HM for mAb2 (overall conclusion): constant osmolality, concentration not given
# Procedure: as §1, §5, §2, §3, §4, §6, §7, §8
# (§10) Experiment was performed to check whether high osmolality or high sugar concentration have an influence on the viability of the cells, VCD as well as on amount of High Mannose (HM) species. A chemically defined proprietary medium with lower osmolality (PM-200) compared to standard media, was used to vary sugar concentrations from 1-150 mM (green) while maintaining the osmolality of standard media (315 mOsm/kg) via supplementation with NaCl (blue), as illustrated in FIG. 1. Standard media and PM-200 differ in the composition, so the missing amounts of raw material were added (except NaCl). As sugars raffinose (a trisaccharide) and sucrose (a disaccharide) were chosen. Stock solutions (raffinose 22 mM, raffinose 220 mM, sucrose 50 mM, sucrose 1 M and NaCl 1 M) were prepared and added to the media before inoculation.
# as §9
# [4] = tested on: mAb1 cells (CHO-S cells expressing IgG1 mAb1); assay: as above; type: cell-based, Chinese hamster; conditions: for increase of High Mannose (HM) species of mAb1 with respect to control: absolute change; for cell growth with increasing sugar concentration: 0-127.5 mM; for increase of HM for mAb1 (overall conclusion): constant osmolality, concentration not given
# Procedure: as §1, §5, §2, §3, §4, §6, §7, §8, §10, §9
# recombinant CHO cells = conditions: cited from earlier work
# [5] = 100 mM raffinose, Spin Tubes, absolute change
# [6] = 425 mOsm/kg with 30 mM raffinose
# [7] = 100 mM sugar, 315 mOsm/kg, working day 14
# [8] = 1 mM sugar in medium, 315 mOsm/kg, 14-day culture
# [9] = 5 mM sugar, 315 mOsm/kg, working day 14
# [10] = 50 mM sugar, 315 mOsm/kg, working day 14
# [11] = 127.5 mM sugar, 315 mOsm/kg, working day 14
# [12] = 80 mM sugar, 315 mOsm/kg, working day 14
structure (smiles),measurement,setting,value
"OC[C@H]1O[C@H](OC[C@H]2O[C@H](O[C@]3(CO)O[C@H](CO)[C@@H](O)[C@@H]3O)[C@H](O)[C@@H](O)[C@@H]2O)[C@H](O)[C@@H](O)[C@H]1O [raffinose, O-α-D-Galactopyranosyl-(1→6)-α-D-g lucopyranosyl-(1→2)-β-D-fructofuranoside]",maximum cell concentration (VCD),"[1]; 10 mM raffinose, Spin Tubes, n=2",17.8±0.2 *10^6 cells/mL
same,concentration of antibodies (harvest titer),"[1]; 10 mM raffinose, working day 14, Spin Tubes",about 2200 mg/L
same,increase of productivity versus control,"[1]; 100 mM raffinose, Spin Tubes",about 64%
same,"productivity per cell per day (PCD), peak","[1]; 100 mM raffinose, Spin Tubes",about 23 pg/cell/day
same,viability at the end of cultivation,"[1]; 100 mM raffinose, Spin Tubes",about 86%
same,decrease of fucosylated glycans of mAb1 with respect to control,[1]; [5],15.9%
same,increase of Man5 of mAb1 with respect to control,[1]; [5],7.7%
same,maximum VCD (lowest of the conditions),"[1]; 100 mM raffinose, Spin Tubes, n=2",10.2±0.2 *10^6 cells/mL
same,acid isoforms and amount of aggregates with increasing raffinose concentration,"[1]; Spin Tubes, data not shown",increased
same,amount of alkaline isoforms with increasing raffinose concentration,"[1]; Spin Tubes, data not shown",decreased
same,"absolute change of unknown, galactosylated and sialylated glycoforms","[1]; raffinose supplementation, Spin Tubes",not affected
same,absolute harvest titer compared to control,"[1]; supplemented raffinose (10-100 mM), Spin Tubes",higher than the control
same,viability at the end of the experiment,[2]; 375 mOsm/kg and 30 mM raffinose,about 59%
same,absolute harvest titer,"[2]; 425 mOsm/kg and 30 mM raffinose, working day 14",about 1150 mg/L
same,increase of HM species of mAb2 with respect to control (315 mOsm/kg),[2]; [6],8.5%
same,maximum VCD (lowest of the conditions),[2]; [6],8.2±2.3 *10^6 cells/mL
same,maximum cell concentration (VCD),"[3]; 5 mM sugar, 315 mOsm/kg",11.85±1.1 *10^6 cells/mL
same,maximum VCD (lowest of the conditions),"[3]; 80 mM sugar, 315 mOsm/kg",6.4±1.7 *10^6 cells/mL
same,specific productivity,"[3]; 100 mM sugar, 315 mOsm/kg",about 30 pg/cell/day
same,increase of High Mannose (HM) species of mAb2 with respect to control,"[3]; 100 mM sugar, 315 mOsm/kg",6.3%
same,harvest titer,[3]; [7],about 2350 mg/L
same,cell growth with increasing sugar concentration,[3]; 315 mOsm/kg,reduced
same,change of fucosylated species of mAb2 with higher sugar concentration,[3]; 315 mOsm/kg,decrease
same,"change of galactosylated, HM and non-fucosylated species of mAb2 with higher sugar concentration",[3]; 315 mOsm/kg,increase
same,increase of HM for mAb2 (overall conclusion),[3],6%
same,maximum cell concentration (VCD),[4]; [8],16.2±1.0 *10^6 cells/mL
same,cell viability,[4]; [9],about 57%
same,absolute harvest titer,"[4]; 10 mM sugar, 315 mOsm/kg, working day 14",about 2650 mg/L
same,increase of High Mannose (HM) species of mAb1 with respect to control,"[4]; 50 mM sugar, 315 mOsm/kg",6.8%
same,maximum cell concentration (VCD),"[4]; 100 mM sugar in medium, 315 mOsm/kg",2.3±2.1 *10^6 cells/mL
same,specific productivity,[4]; [7],about 45 pg/cell/day
same,product titer compared to control,"[4]; 1-65 mM sugar, 315 mOsm/kg, working day 14",higher product titer than control
same,absolute harvest titer,"[4]; 80-127.5 mM sugar, 315 mOsm/kg, working day 14",825 to 975 mg/L
same,change of fucosylated species of mAb1 with increasing sugar concentration,[4]; 315 mOsm/kg,decrease
same,"change of galactosylated, HM and non-fucosylated species of mAb1 with increasing sugar concentration",[4]; 315 mOsm/kg,increase
same,cell growth with increasing sugar concentration,[4]; 315 mOsm/kg,inhibited
same,specific productivity with increasing sugar concentration,"[4]; 315 mOsm/kg, working day 14",increased
same,increase of HM for mAb1 (overall conclusion),[4],7%
CCCC(=O)[O-].[Na+] [sodium butyrate],cell viability at the end of the production run,"recombinant CHO cells; batch culture, after 8 days of culture",less than 45%
same,cell viability,"recombinant CHO cells; perfusion batch culture, within 6 days of treatment",15%
"OC[C@H]1O[C@@](CO)(O[C@H]2O[C@H](CO)[C@@H](O)[C@H](O)[C@H]2O)[C@@H](O)[C@@H]1O [sucrose, α-D-glucopyranosyl-(1→2)-β-D-fructofuranoside]",absolute harvest titer,[3]; [9],about 700 mg/L
same,maximum cell concentration (VCD),"[3]; 10 mM sugar, 315 mOsm/kg",11.1±1.6 *10^6 cells/mL
same,absolute harvest titer,[3]; [10],about 2100 mg/L
same,specific productivity,[3]; [10],about 21 pg/cell/day
same,increase of High Mannose (HM) species of mAb2 with respect to control,"[3]; 100 mM sugar, 315 mOsm/kg",6.0%
same,maximum VCD (lowest of the conditions),"[3]; 127.5 mM sugar, 315 mOsm/kg",6.9±1.1 *10^6 cells/mL
same,increase of High Mannose (HM) species of mAb2 with respect to control,"[3]; 127.5 mM sugar, 315 mOsm/kg",9.1%
same,specific productivity,[3]; [11],about 24 pg/cell/day
same,change of fucosylated species of mAb2 with higher sugar concentration,[3]; 315 mOsm/kg,decrease
same,"change of galactosylated, HM and non-fucosylated species of mAb2 with higher sugar concentration",[3]; 315 mOsm/kg,increase
same,increase of HM for mAb2 (overall conclusion),[3],9%
same,production of antibodies with respect to control,"[3]; sugar supplementation, 315 mOsm/kg, working day 14",decrease
same,maximum cell concentration (VCD),[4]; [8],18.2±1.7 *10^6 cells/mL
same,absolute harvest titer,"[4]; 1 mM sugar, 315 mOsm/kg, working day 14",about 2800 mg/L
same,absolute harvest titer,[4]; [12],~2550 mg/L
same,specific productivity,[4]; [12],about 26 pg/cell/day
same,increase of High Mannose (HM) species of mAb1 with respect to control,"[4]; 100 mM sugar, 315 mOsm/kg",14.2%
same,maximum cell concentration (VCD),"[4]; 127 mM (maximum tested) sugar, 315 mOsm/kg",9.6±3.2 *10^6 cells/mL
same,increase of High Mannose (HM) species of mAb1 with respect to control,"[4]; 127.5 mM sugar, 315 mOsm/kg",14.3%
same,cell viability,[4]; [11],~64%
same,change of fucosylated species of mAb1 with increasing sugar concentration,[4]; 315 mOsm/kg,decrease
same,"change of galactosylated, HM and non-fucosylated species of mAb1 with increasing sugar concentration",[4]; 315 mOsm/kg,increase
same,cell growth with increasing sugar concentration,[4]; 315 mOsm/kg,inhibited
same,specific productivity with increasing sugar concentration,"[4]; 315 mOsm/kg, working day 14",no change
same,increase of HM for mAb1 (overall conclusion),[4],14%
